Assay [1] addresses T1, S1P1 (Homo sapiens (Human), UniProt P21453). As to the kind of experiment: Receptor binding assay, [33P]sphingosine 1-phosphate, membranes from CHO cells expressing S1P1. Conditions: CHO cell membranes, 25 pM [33P]sphingosine 1-phosphate. As to the method:
(§1) Receptor binding assay: Membranes were prepared from CHO cells expressing S1P1 or S1P3 for use in ligand and […] binding studies. Cells were suspended in 50 mM TRIS, pH 7.4, 2 mM EDTA, 250 mM Sucrose (buffer A) and 1× Complete protease inhibitor cocktail (Roche), and disrupted at 4° C. by N2 decompression using a cell disruption bomb (Parr Instrument). Following centrifugation at 1000 RPM for 10 min at 4° C., the supernatant was suspended in buffer A and centrifuged again at 19000 RPM for 60 min at 4° C. The pellet was then suspended in 10 mM HEPES, pH 7.4, 1 mM EDTA, 250 mM Sucrose (Buffer B), and 1× Complete EDTA-free protease inhibitor cocktail and homogenized using a potter. Membranes were flash frozen in liquid N2 and stored at −80° C. [33P]sphingosine 1-phosphate (3000 Ci/mmol; American Radiolabeled Chemicals, Inc.) was added to test compounds in DMSO. Membranes and WGA SPA beads (GE Healthcare) were added to give a final volume of 100 μl in 96-well plates with assay concentrations of 25 pM or 10 pM [33P]sphingosine 1-phosphate (respectively for S1P1 or S1P3), 50 mM HEPES, pH 7.5, 5 mM MgCl2, 100 mM NaCl, 0.4% fatty acid-free BSA, 1-5 μg/well of proteins and 100 μg/well of WGA SPA beads. Binding was performed for 60 min at RT on a shaker and bound radioactivity was measured on a PerkinElmer 1450 MicroBeta counter. Specific binding was calculated by subtracting remaining radioactivity in the presence of 1000-fold excess of unlabeled SIP. Binding data were analyzed using the GraphPad Prism program.

Assay [2] concerns the target T1, S1P1. Put plainly: 35S-GTPγS binding, membranes from CHO cells expressing S1P1. Conditions: CHO cell membranes. The format is biochemical. (In general: Binding of GTPγS marks nucleotide exchange on a G protein.)
Assay [3] concerns the target S1P3 (Homo sapiens (Human), UniProt Q99500). As to the kind of experiment: 35S-GTPγS binding, membranes from CHO cells expressing S1P3. In kind it is biochemical. The settings on record: CHO cell membranes. As for the experimental part: as §1
Measurements of 35S-GTPγS Binding: Membranes (1 to 10 μg protein) prepared as described above, were incubated in 96-well Scintiplates (PerkinElmer) with test compounds diluted in DMSO, in 180 μl of 20 mM HEPES, pH 7.4, 10 mM MgCl2, 2 μg/well Saponin, 0.2% fatty acid free BSA (Assay buffer), 140 mM NaCl and 1.7 μM GDP. The assay was initiated with the addition of 20 μl of 1.5 nM [35S]-GTPγS (1100 Ci/mmol; GE Healthcare) in assay buffer. After 60 min incubation at 30° C. on a shaker, plates were centrifuged for 10 min at 2000 RPM. Supernatant was discarded and membrane bound radioactivity was measured on a PerkinElmer 1450 MicroBeta counter. Triplicate samples were averaged and expressed as % response relative to S1P activation in absence of compound (n=2).

Where a name gives a salt, the structure may show the parent alone.

Sequence of S1P3 (Q99500 whole entry, species assumed): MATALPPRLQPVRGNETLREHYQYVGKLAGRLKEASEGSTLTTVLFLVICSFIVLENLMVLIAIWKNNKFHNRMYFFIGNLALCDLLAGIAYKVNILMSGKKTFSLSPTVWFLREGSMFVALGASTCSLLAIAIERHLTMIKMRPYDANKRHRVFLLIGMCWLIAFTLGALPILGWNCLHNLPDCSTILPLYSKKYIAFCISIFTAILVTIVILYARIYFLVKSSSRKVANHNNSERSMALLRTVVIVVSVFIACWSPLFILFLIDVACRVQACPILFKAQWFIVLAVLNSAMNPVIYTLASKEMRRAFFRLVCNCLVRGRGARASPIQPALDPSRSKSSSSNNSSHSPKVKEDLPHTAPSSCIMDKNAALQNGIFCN
T1 sequence (P21453 whole entry, species assumed): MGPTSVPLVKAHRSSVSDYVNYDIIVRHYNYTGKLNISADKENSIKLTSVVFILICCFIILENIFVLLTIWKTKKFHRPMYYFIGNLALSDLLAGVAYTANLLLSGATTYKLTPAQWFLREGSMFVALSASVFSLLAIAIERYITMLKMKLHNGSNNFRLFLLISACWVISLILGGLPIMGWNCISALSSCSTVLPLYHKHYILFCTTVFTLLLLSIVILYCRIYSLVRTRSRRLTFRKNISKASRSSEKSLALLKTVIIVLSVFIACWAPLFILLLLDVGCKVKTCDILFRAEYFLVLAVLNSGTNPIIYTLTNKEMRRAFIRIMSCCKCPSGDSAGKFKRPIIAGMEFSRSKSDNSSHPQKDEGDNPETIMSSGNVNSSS

What is called Ki is the dissociation constant of the complex between target and ligand, obtained from inhibition or displacement. Read a low Ki as tighter binding. By EC50 is commonly meant the midpoint of the concentration-response curve. High values mean lower potency in that assay, low ones higher potency in that assay. `c1cc(-c2c(-c3nc(-c4ccc5[nH]ncc5c4)no3)cnn2C2CCCCC2)ccn1` [Example 38, 5-[5-(1-cyclohexyl-5-pyridin-4-yl-1H-pyrazol-4-yl)-1,2,4-oxadiazol-3-yl]-1H-indazole]: in assay [1], the Ki stood at 68 nM. Besides, the results for the EC50 in assay [2] and in assay [3] were 3 nM and 474 nM, respectively.
In turn, `O=C(O)CCNCc1ccc(-c2noc(-c3cnn(C4CCCCC4)c3C3CCOCC3)n2)cc1` [Example 102, 3-(4-(5-(1-cyclohexyl-5-(tetrahydro-2H-pyran-4-yl)-1H-pyrazol-4-yl)-1,2,4-oxadiazol-3-yl)benzylamino)propanoic acid] showed a Ki in assay [1] of 0.8 nM. Besides, the EC50 worked out at 2.1 nM in assay [2] and 214 nM in assay [3].
On to `CS(=O)(=O)c1cccc(-c2noc(-c3cnn(-c4ccccc4F)c3-c3ccncc3)n2)c1` [Example 9, 4-(1-(2-fluorophenyl)-4-{3-[3-(methylsulfonyl)phenyl]-1,2,4-oxadiazol-5-yl}-1H-pyrazol-5-yl)pyridine], for which, in assay [1], the inhibition constant Ki was 5 nM. The EC50 in assay [2] is 28 nM; in assay [3] it was over 20000 nM.
The matching figures for `O=C(O)C1CN(Cc2ccc(-c3noc(-c4cnn(CC5CC5)c4-c4ccncc4)n3)cc2)C1` [Example 101, 1-(4-(5-(1-(cyclopropylmethyl)-5-(pyridin-4-yl)-1H-pyrazol-4-yl)-1,2,4-oxadiazol-3-yl)benzyl)azetidine 3-carboxylic acid, formate]: 1.8 nM, 12 nM and 1620 nM.
On to `OCc1ccc(-c2noc(-c3cnn(C4CCCCC4)c3C3CCCO3)n2)cc1` (stereo not drawn) [Example 117, (4-(5-(1-cyclohexyl-5-(tetrahydrofuran-2-yl)-1H-pyrazol-4-yl)-1,2,4-oxadiazol-3-yl)phenyl)methanol], for which affinity in assay [1] was put at a Ki of 2 nM. Besides, the figures for the EC50 in assay [2] and in assay [3] were 11 nM and 622 nM, respectively.
On the same counts, the results for `O=C(O)C1CCN(Cc2ccc(-c3noc(-c4cnn(C5CCCCC5)c4C4CCCO4)n3)cc2)CC1` (stereo not drawn) [Example 125, 1-(4-(5-(1-cyclohexyl-5-(tetrahydrofuran-2-yl)-1H-pyrazol-4-yl)-1,2,4-oxadiazol-3-yl)benzyl)piperidine-4-carboxylic acid] are 0.6 nM, 1.9 nM and 427 nM.
Regarding `COCCc1c(-c2nc(-c3ccc(CN4CC(C(=O)O)C4)cc3)no2)cnn1C1CCCCC1` [Example 120, 1-(4-(5-(1-cyclohexyl-5-(2-methoxyethyl)-1H-pyrazol-4-yl)-1,2,4-oxadiazol-3-yl)benzyl)azetidine-3-carboxylic acid], the affinity in assay [1], expressed as Ki, was 0.1 nM. Further, the EC50 is 0.5 nM in assay [2] and 489 nM in assay [3].

These data come from patent US8802663B2, “Pyrazole oxadiazole derivatives as S1P1 agonists” (Merck Serono SA, priority 2009, dated 2014).
